Measured values taken from ChEMBL document CHEMBL4196028, “Synthesis and biological evaluation of 20-epi-amino-20-deoxysalinomycin derivatives” (Eur J Med Chem, 2018).

Test: physchem
Settings: n-octanol/water

| Structure (SMILES) | logP |
| --- | --- |
| CC[C@@H](C(=O)[C@@H](C)[C@@H](O)[C@H](C)[C@@H]1O[C@@H]([C@@H](CC)C(=O)O)CC[C@@H]1C)[C@H]1O[C@]2(C=C[C@@H](O)[C@]3(CC[C@@](C)([C@H]4CC[C@](O)(CC)[C@H](C)O4)O3)O2)[C@H](C)C[C@@H]1C [SALINOMYCIN] | 2.21 |
| CC[C@@H](C(=O)[C@@H](C)[C@@H](O)[C@H](C)[C@@H]1O[C@@H]([C@@H](CC)C(=O)OCC[Si](C)(C)C)CC[C@@H]1C)[C@H]1O[C@]2(C=C[C@H](n3cc(COC(C(F)(F)F)(C(F)(F)F)C(F)(F)F)nn3)[C@]3(CC[C@@](C)([C@H]4CC[C@](O)(CC)[C@H](C)O4)O3)O2)[C@H](C)C[C@@H]1C | 1.95 |
| CC[C@@H](C(=O)[C@@H](C)[C@@H](O)[C@H](C)[C@@H]1O[C@@H]([C@@H](CC)C(=O)O)CC[C@@H]1C)[C@H]1O[C@]2(C=C[C@H](NC(=O)OCc3ccccc3)[C@]3(CC[C@@](C)([C@H]4CC[C@](O)(CC)[C@H](C)O4)O3)O2)[C@H](C)C[C@@H]1C | 1.77 |
